Assay results reported in ChEMBL document CHEMBL1201862, “PubChem BioAssay data set” (2004).
One block for each compound: values may come before it. Calls of active or inactive are those of the source.

Experiments:
[1] = target: T1, Probable nicotinate-nucleotide adenylyltransferase (Staphylococcus aureus (strain N315), UniProt P65502); format: functional, Staphylococcus aureus subsp. aureus N315; conditions: read-out: IC50_Mean;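 for IC50 Mean: confirmatory dose-response retesting of NadD inhibitor hits first found in an ultra-high-throughput screen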
Phospholipase A2 = Phospholipase A2 (Homo sapiens, UniProt P04054); format: functional;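 note: confirmatory dose-response counterscreen on phospholipase A2, testing hits that came from an ultra-high-throughput screen for ATG4B inhibitors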
[2] = target: T1, Probable nicotinate-nucleotide adenylyltransferase; format: functional, Staphylococcus aureus subsp. aureus N315
Cysteine protease ATG4B = target: T2, Cysteine protease ATG4B (Homo sapiens, UniProt Q9Y4P1); format: functional;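 note: Fluorescence-based dose-response confirmation assay measuring inhibition of ATG4B activity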
T2 sequence (Q9Y4P1 whole entry): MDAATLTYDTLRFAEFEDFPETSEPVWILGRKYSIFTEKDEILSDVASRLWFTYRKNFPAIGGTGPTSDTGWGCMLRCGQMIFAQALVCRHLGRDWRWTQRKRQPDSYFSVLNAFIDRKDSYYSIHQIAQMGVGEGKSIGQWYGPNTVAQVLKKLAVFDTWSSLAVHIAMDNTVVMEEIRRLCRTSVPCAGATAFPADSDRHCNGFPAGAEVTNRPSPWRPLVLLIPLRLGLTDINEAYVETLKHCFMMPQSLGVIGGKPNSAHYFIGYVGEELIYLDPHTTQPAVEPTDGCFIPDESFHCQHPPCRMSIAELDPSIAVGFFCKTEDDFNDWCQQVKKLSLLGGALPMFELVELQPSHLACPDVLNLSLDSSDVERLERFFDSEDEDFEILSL

[3] = target: T3, Calpain-2 catalytic subunit (Sus scrofa, UniProt P43367); assay: pig calpain II inhibitor potency, dose response, biochemical, fluorogenic peptide substrate (AID 1420); format: functional
T3 sequence (P43367 whole entry): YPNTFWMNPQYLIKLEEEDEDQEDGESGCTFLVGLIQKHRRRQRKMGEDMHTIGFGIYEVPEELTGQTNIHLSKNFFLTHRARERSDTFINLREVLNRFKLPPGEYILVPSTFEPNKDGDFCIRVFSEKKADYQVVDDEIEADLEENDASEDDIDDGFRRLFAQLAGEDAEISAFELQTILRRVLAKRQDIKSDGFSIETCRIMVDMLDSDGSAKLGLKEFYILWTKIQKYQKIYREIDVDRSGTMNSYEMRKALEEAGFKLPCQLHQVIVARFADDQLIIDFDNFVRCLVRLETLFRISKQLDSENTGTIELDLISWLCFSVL

Galanin receptor type 3 = target: T4, Galanin receptor type 3 (Homo sapiens, UniProt O60755); assay: Fluorescence-based cell-based primary high throughput dose response assay to identify antagonists of the Galanin Receptor 3 (GalR3).; format: functional
T4 sequence (O60755 whole entry): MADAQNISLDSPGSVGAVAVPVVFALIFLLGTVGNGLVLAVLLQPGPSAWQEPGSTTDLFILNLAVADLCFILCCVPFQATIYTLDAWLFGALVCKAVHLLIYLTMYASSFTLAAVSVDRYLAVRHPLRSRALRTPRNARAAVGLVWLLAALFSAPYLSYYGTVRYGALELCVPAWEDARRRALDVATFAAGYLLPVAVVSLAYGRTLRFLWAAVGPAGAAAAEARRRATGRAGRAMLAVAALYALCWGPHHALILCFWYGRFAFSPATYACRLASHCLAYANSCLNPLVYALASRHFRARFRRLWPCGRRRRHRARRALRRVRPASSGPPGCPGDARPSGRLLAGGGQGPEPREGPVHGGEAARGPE

cells = format: functional, cell-based; conditions: HEK-CNG
INS1 = assay: beta cell apoptosis inhibitors, cytokine rescue, dose response, luminescence, retest (AID 449756); format: functional, cell-based; conditions: Rattus norvegicus;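 note: cell death triggered by IL-1 beta plus TNF-alpha plus IFN-gamma mixture; protective hits raise ATP signal compared with cytokine alone wells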
Protein Wnt-3a = Protein Wnt-3a (Mus musculus, UniProt P27467); assay: Wnt3a-driven reporter signaling inhibition, dose response, selectivity assay for Gli-SUFU antagonist project, Wnt-LIGHT cells, luminescence (AID 651570); format: functional; conditions: read-out: IC50_Mean;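 note: Wnt-LIGHT reporter cells stimulated with conditioned medium from Wnt3a-producing cells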
[4] = target: T5, COUP transcription factor 2 (Homo sapiens, UniProt P24468); assay: Luminescence-based cell-based high throughput dose response assay to identify inhibitors of COUP-TFII (NR2F2).; format: functional;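 note: HEK293 cells transiently cotransfected with COUP-TFII expression vector and reporter; luciferase reporter luminescence driven by COUP-TFII from the pX2-168 reporter plasmid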
T5 sequence (P24468 whole entry): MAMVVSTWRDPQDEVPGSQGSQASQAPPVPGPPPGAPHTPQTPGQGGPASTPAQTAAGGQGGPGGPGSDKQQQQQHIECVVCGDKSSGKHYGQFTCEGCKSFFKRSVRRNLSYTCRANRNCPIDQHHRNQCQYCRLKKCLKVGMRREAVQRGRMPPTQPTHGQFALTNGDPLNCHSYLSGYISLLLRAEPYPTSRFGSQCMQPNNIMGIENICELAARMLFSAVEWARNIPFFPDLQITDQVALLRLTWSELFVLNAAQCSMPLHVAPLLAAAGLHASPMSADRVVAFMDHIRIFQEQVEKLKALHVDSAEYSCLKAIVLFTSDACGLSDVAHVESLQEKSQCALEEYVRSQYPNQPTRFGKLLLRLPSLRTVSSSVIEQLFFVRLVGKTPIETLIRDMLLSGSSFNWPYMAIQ

HEK293 = assay: inhibitors of LMP1-driven NF-kB reporter, dose response, cell-based, HEK293, luciferase, cherry-pick (AID 588343); format: functional; conditions: Homo sapiens
BJ [5] = assay: cytotoxicity toward BJ-TERT-LT-ST fibroblasts, dose response, cell-based, RAS-independent, luminescence (AID 1935); format: functional; conditions: Homo sapiens;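 note: BJ fibroblasts immortalized with TERT plus LT and ST oncogenes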
BJ [6] = assay: cytotoxicity toward BJ-TERT fibroblasts, dose response, cell-based, RAS-independent, luminescence (AID 1933); format: functional; conditions: Homo sapiens
BJ [7] = assay: cells; format: functional, cell-based; conditions: Homo sapiens
BJ [8] = assay: cytotoxicity toward Ras-transformed BJeLR fibroblasts, dose response, cell-based, alamar blue fluorescence, cherrypicked samples (AID 2631); format: functional; conditions: Homo sapiens;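 note: confirmatory dose-response assay in RAS-dependent BJ fibroblasts engineered with TERT, LT and ST, with cytotoxicity read by fluorescence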
[9] = cytotoxicity toward DRD oncogenic fibroblasts, dose response, cell-based, non-viral oncogenic, luminescence (AID 1934); format: functional; conditions: Homo sapiens
[10] = cytotoxicity in HEK-293T cells, dose response, cytotoxicity control for TCR NF-kB inhibitor project, luminescence, T-cell screen hits (AID 489026); format: functional, cell-based;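 note: cells exposed to compound about 14 hours before the viability readout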
Streptococcus = assay: Group A Streptococcus viability loss, dose response, counter-screen for streptokinase expression inhibitor project, luminescence, BacTiterGlo (AID 1915); format: functional, organism-based;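 note: potency for reduction of bacterial viability or growth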
[11] = system: Streptococcus sp. 'group A'; assay: growth inhibition of control SK(-) GAS strain, dose response, counter-screen for streptokinase expression inhibitor project, luminescence, kanamycin, BacTiterGlo, confirmation (AID 1900); format: functional, organism-based
[12] = target: T6, DNA repair protein RAD52 homolog (Homo sapiens, UniProt P43351); format: functional, biochemical
T6 sequence (P43351 whole entry): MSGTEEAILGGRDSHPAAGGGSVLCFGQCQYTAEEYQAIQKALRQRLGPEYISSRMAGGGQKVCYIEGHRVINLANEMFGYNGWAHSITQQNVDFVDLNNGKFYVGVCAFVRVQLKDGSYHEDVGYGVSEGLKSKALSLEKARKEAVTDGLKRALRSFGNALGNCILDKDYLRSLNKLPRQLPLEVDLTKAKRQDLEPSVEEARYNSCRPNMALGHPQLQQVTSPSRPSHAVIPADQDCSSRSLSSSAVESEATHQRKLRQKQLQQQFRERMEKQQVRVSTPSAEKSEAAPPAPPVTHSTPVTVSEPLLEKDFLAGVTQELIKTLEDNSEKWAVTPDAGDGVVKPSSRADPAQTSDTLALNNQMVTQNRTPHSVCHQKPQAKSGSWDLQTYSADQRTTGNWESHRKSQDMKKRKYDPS

[13] = target: T7, DNA repair and recombination protein RAD54-like (Homo sapiens, UniProt Q92698); assay: inhibitors of human RAD54 branch migration, confirmation, biochemical, fluorescence, cherry-picked samples, dose series (AID 651657); format: functional
T7 sequence (Q92698 whole entry): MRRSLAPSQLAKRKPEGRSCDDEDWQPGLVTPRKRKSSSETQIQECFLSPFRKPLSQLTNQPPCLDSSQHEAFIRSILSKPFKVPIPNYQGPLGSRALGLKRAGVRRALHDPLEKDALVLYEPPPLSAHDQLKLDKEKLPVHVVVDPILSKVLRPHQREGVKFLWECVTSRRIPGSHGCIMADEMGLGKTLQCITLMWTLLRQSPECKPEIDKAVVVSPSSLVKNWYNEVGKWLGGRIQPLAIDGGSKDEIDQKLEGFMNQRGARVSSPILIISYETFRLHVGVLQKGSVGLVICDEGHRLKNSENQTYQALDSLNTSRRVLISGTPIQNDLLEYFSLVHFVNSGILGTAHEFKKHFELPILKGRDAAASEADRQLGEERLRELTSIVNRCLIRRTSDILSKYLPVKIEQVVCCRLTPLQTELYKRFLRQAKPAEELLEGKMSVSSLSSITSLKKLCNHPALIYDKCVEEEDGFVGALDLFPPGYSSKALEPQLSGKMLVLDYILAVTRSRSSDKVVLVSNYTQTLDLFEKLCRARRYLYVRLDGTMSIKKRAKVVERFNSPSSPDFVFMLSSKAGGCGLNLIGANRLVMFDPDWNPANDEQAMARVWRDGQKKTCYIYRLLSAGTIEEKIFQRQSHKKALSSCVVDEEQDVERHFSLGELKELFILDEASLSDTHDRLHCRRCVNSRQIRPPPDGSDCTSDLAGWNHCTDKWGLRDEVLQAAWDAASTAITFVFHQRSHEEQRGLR

Sequence of Phospholipase A2 (P04054 whole entry): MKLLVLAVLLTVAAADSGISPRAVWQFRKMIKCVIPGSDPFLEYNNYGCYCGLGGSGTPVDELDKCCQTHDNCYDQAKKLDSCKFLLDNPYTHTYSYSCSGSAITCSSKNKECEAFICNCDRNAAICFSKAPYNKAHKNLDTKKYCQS
Sequence of Protein Wnt-3a (P27467 whole entry): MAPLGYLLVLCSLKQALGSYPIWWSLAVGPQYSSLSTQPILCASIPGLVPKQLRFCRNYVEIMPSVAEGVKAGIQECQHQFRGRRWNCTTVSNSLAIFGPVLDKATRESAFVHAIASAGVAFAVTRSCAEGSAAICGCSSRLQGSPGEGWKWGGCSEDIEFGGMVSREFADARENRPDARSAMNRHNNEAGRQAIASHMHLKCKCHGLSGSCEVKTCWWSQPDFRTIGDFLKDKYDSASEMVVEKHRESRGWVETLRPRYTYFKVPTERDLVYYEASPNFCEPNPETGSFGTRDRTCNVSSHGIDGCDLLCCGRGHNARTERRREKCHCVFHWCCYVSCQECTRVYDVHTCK

- IC50 [1]: 52.9 µM (active)
- IC50 (Phospholipase A2): 16.6 µM (active)
- IC50 [2]: 9.52 µM (active)
- IC50 (Cysteine protease ATG4B): 20.5 µM (inactive)
Structure (SMILES): CCCc1cc(=O)[nH]c(SCC(=O)N2N=C(c3ccc(Cl)cc3)CC2c2ccco2)n1 (configuration not stated)

- IC50 (Phospholipase A2): 8.63 µM (active)
- IC50 (Cysteine protease ATG4B): 21 µM (inactive)
Structure (SMILES): O=C(O)Cc1sc(NC2CCCCC2)nc1-c1ccc(Cl)cc1

- AC50 [12]: 4.63 µM (active)
- AC50 [13]: 8.19 µM (active)
Structure (SMILES): Cc1cccn2c(=O)c3cc(C(=O)NCCN4CCOCC4)c(=N)n(CCCN4CCOCC4)c3nc12

- IC50 [1]: 28.7 µM (active)
- IC50 [2]: 11.6 µM (active)
Structure (SMILES): CCOC(=O)c1c(-c2ccccc2Cl)csc1NC(=O)CSc1nc(C)cc(=O)[nH]1

Continued, compound first:

Structure (SMILES): Cn1c(N)c(C(=O)COC(=O)c2cnc(Cl)c(Cl)c2)c(=O)n(C)c1=O
- IC50 [3]: 10.1 µM (active)
- IC50 (Galanin receptor type 3): > 29.9 µM (inactive)
- EC50 (cells): > 29.9 µM (inactive)

Structure (SMILES): Cc1sc2ncnc(NCC3COc4ccccc4O3)c2c1C (configuration not stated)
- AC50 (INS1): 1.68 µM (active)
- IC50 (Protein Wnt-3a): 0.441 µM (active)
- IC50 [4]: 3.38 µM (active)
- AC50 (HEK293): 35.9 µM (active)

Structure (SMILES): C[C@@H]1C=CC(=O)O[C@@H]1c1ccc(Cl)cc1
- EC50 (BJ [5]): 16.7 µM (active)
- EC50 (BJ [6]): 21.3 µM (active)
- EC50 (BJ [7]): 23.8 µM (active)
- EC50 (BJ [8]): 0.547 µM (active)
- EC50 [9]: 5.84 µM (active)
- IC50 [10]: > 80 µM (inactive)

Structure (SMILES): CC(C)(C)C(=O)NC(=S)NNC(=O)c1ccc(Cl)cc1Cl
- IC50 (Galanin receptor type 3): > 29.9 µM (inactive)
- EC50 (Streptococcus): 5.5 µM (active)
- EC50 (cells): > 29.9 µM (inactive)
- EC50 [11]: 1.88 µM (active)
